Drawing on ChEMBL document CHEMBL1201862, “PubChem BioAssay data set” (2004), this text covers IC50 and EC50 for two compounds.

Structures are written as SMILES. Activity calls are given as the source filed them.

The target in assay [1] is Melanin-concentrating hormone receptor 1 (Homo sapiens, UniProt Q99705). Briefly: Fluorescence-based counterscreen for antagonists of the G-protein coupled receptor 7 (GPR7): cell-based high throughput dose response assay to identify antagonists of the melanin-concentrating hormone receptor 1 (MCHR1). The format is functional. (In general: A counterscreen serves to expose hits that act by an unwanted route or on another target.)

Assay [2] addresses Neuropeptides B/W receptor type 1 (Homo sapiens, UniProt P48145). Briefly: Fluorescence-based dose response cell-based high throughput screening assay to identify antagonists of the G-protein coupled receptor 7 (GPR7). [Related pubchem assays: 1952 (Screening assay (GPR7 antagonists).), 1880 (Summary AID.)]. The format is functional.
Assay [3] has as its target T1, Neuropeptide Y receptor type 1 (Homo sapiens, UniProt P25929).
T1 sequence (P25929 whole entry): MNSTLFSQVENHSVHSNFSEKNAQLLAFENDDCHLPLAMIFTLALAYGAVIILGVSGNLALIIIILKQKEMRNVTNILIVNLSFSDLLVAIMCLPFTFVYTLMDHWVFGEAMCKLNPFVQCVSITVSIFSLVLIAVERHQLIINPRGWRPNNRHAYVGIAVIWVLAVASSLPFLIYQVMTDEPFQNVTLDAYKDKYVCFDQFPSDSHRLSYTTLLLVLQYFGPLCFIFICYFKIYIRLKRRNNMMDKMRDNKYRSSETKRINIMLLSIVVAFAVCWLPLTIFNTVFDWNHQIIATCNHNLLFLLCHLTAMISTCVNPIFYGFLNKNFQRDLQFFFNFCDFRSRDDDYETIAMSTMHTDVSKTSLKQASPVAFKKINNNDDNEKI
Briefly: IC50 of human NPY-Y1 blockers – cell-based, dose response (AID 1277). The format is functional.

The target in assay [4] is T2, Neuropeptide Y receptor type 2 (Homo sapiens, UniProt P49146).
T2 sequence (P49146 whole entry): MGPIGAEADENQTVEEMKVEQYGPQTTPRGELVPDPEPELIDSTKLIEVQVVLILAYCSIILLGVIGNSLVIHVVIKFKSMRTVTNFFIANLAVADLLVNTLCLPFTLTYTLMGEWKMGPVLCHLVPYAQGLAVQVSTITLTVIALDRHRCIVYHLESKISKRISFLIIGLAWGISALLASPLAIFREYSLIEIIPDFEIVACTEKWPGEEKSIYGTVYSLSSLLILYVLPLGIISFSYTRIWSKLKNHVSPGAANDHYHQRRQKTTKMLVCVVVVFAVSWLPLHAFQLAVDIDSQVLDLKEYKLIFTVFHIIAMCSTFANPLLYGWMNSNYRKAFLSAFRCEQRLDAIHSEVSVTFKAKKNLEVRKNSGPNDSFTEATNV
Briefly: IC50 for human NPY-Y2 blockade – cell-based, counter-screen for NPY-Y1 antagonist project, dose response (AID 1278). The format is functional.

For assay [5], the system named is HEK293. Briefly: TNF Induced NF-kB Luciferase in 293-NF-kB-Luc Stable Cells. [Related pubchem assays: 1266, 1299, 1269, 1373, 1292, 1290, 1302, 1371, 1283, 1270, 1295, 1271, 1375, 1294, 1374, 1281, 1293, 1291, 1289, 1280, 465, 1368, 1364, 1282, 1372, 1365, 1369, 1370, 1367, 1366 ]. The format is functional, cell-based. As to conditions: Homo sapiens.
In assay [6] the test system is HEK293. As to the kind of experiment: PMA/Ionomycin induced NF-kB luciferase assay in 293- NF-kB-Luc stable cells. [Related pubchem assays: 1299, 1270, 1295, 1375, 1287, 1281, 1293, 1291, 1289, 1280, 465, 1364, 1282, 1372, 1365, 1370, 1367, 1366, 1269, 1373, 1292, 1290, 1302, 1371, 1283, 1271, 1294, 1374, 1368, 1369 ]. The format is functional, cell-based. To be noted: Homo sapiens.

Assay [7] has as its target Luciferin 4-monooxygenase (Photinus pyralis, UniProt P08659). As to the kind of experiment: In vitro luciferase assay using purified luciferase. [Related pubchem assays: 1299, 1270, 1295, 1375, 1287, 1281, 1293, 1291, 1289, 1280, 465, 1364, 1282, 1372, 1365, 1370, 1367, 1366, 1266, 1373, 1292, 1290, 1302, 1371, 1283, 1271, 1294, 1374, 1368, 1369 ].
For a further assay, the system named is Jurkat. As to the kind of experiment: SAR Analysis of small molecule inhibitors of T-cell specific antigen receptor-induced NF-kB activation in a Jurkat cell line using a luminescence assay - Set 2. [Related pubchem assays (depositor defined):AID435003, AID435012, AID465]. The format is functional, cell-based. To be noted: Homo sapiens.
The subject of assay [8] is HEK293. As to the kind of experiment: HEK293T cell viability loss, resazurin readout – resazurin fluorescence, cytotoxicity control for NF-kB activator project, SAR follow-up (AID 493251). The format is functional, cell-based. As to conditions: Homo sapiens. (In general: Resazurin is reduced to fluorescent resorufin, in cell work by metabolically active cells.)
Assay [9] relates to HEK293. Briefly: Cytotoxicity assay in HEK293 cells. [Related pubchem assays (depositor defined):AID1266, AID1269, AID1270, AID1271, AID1280, AID1281, AID1282, AID1283, AID1287, AID1289, AID1290, AID1291, AID1292, AID1293, AID1294, AID1295, AID1299, AID1302, AID1364, AID1365, AID1366, AID1367, AID1369, AID1370, AID1371, AID1372, AID1373, AID1374, AID1375, AID1384 …. The format is functional, cell-based. As to conditions: Homo sapiens.

In assay [10] the test system is HEK293. As to the kind of experiment: SAR Analysis of small molecule inhibitors of T-cell specific antigen receptor-induced NF-kB activation in a HEK-293T cell line using a luminescence assay - Set 2. [Related pubchem assays (depositor defined):AID435003, AID435012, AID489026]. The format is functional, cell-based. To be noted: Homo sapiens.
In assay [11] the test system is HEK293. Briefly: PMA/Ionomycin-induced IL-8 production in HEK293- NF-kB-Luc stable cells. [Related pubchem assays: 1299, 1295, 1375, 1287, 1281, 1293, 1291, 1289, 1280, 465, 1364, 1282, 1372, 1365, 1367, 1366, 1266, 1269, 1373, 1292, 1290, 1302, 1371, 1283, 1271, 1294, 1374, 1368, 1369 ]. The format is functional, cell-based. To be noted: Homo sapiens.

Chain of Luciferin 4-monooxygenase (P08659 whole entry): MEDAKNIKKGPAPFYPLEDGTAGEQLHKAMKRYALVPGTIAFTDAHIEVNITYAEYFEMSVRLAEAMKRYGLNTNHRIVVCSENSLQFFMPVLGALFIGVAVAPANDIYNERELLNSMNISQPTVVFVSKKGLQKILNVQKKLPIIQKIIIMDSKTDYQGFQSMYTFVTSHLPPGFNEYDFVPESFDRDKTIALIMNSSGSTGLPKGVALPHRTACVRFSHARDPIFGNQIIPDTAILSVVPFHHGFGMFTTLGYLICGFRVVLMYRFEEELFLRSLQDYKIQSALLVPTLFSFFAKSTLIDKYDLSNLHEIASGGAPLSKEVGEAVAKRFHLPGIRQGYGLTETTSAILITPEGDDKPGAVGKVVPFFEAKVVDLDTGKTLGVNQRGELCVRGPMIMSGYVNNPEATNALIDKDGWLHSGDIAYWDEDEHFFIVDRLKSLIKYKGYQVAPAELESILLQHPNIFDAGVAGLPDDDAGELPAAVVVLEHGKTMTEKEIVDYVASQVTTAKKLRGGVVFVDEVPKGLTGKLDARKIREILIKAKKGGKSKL
Chain of Melanin-concentrating hormone receptor 1 (Q99705 whole entry): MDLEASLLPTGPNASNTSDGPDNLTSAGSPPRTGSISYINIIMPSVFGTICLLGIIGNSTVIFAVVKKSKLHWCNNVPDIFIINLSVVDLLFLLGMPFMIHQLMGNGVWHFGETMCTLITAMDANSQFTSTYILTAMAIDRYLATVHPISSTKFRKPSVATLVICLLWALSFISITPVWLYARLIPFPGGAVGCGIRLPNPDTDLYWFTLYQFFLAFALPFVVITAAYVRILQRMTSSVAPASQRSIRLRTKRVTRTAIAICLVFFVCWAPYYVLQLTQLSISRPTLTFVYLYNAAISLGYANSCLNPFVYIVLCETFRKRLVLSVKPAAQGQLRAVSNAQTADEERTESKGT
Chain of Neuropeptides B/W receptor type 1 (P48145 whole entry): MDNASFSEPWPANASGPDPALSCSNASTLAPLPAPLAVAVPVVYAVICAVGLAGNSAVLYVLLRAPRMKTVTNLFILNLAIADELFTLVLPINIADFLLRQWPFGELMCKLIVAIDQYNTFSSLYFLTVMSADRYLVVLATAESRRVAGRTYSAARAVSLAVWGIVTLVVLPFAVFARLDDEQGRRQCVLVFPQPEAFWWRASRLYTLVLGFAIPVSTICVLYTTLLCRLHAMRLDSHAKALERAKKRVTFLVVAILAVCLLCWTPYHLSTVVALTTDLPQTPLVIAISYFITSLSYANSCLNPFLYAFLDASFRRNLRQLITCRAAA

What is called IC50 is the midpoint of a concentration-inhibition curve. As for `CC(NC(=O)Cn1c(NCCO)nc2ccccc21)C1CC2CCC1C2` (configuration not stated), the IC50 is > 43.8 µM (not active) in assay [1], > 14.6 µM (not active) in assay [2], > 35 µM (not active) in assay [3] and > 35 µM (not active) in assay [4].

Broadly, the EC50 is the concentration needed to bring the measured effect to its halfway point. For the compound `CCOc1ccc(NC(=O)c2ccc([N+](=O)[O-])o2)cc1`, the EC50 in the assay on HEK293 [5] was > 8 µM (not active); in the assay on HEK293 [6], 2.77 µM (active); in assay [7], > 8 µM (not active); with HEK293 [9], > 8 µM (inactive); with HEK293 [11], > 8 µM (not active). Further, the IC50 with Jurkat is 38.9 µM (inactive); with HEK293 [8] it was 50.6 µM (inactive); in the assay with HEK293 [10], 39.9 µM (inactive).
